Measurements taken from patent US5196447A, “Neristatin 1” (Arizona Board of Regents, a body Corporate of The State of …, priority 1991, dated 1993).
Values after ≈ are worked out from the molar mass of the structure shown.

Assays:
protein kinase C [1] = experiment: Usual phorbol ester binding conditions using reconstitution of protein kinase C in phosphatidylserine
P388 cell line = experiment: Activity against the P388 lymphocytic leukemia cell line; assay type: cell-based, murine
[2] = Stability in recrystallization attempts / various solvents; assay type: physicochemical
protein kinase C [3] = experiment: Competition for [26-3H] bryostatin 4 binding to protein kinase C (phosphatidylserine/TRITON X-100 mixed micelles)

COC(=O)C=C1CC2C=CC(C)(C)C(=O)C34OC(=O)CC3CC(CC(O)C(C)OC(=O)CC(O)CC3CC(OC(=O)C(C)(C)C)C(C)(C)C(O)(CC(C1)O2)O3)O4 (stereo not shown) [neristatin 1]
affinity for protein kinase C compared with phorbol 12,13-dibutyrate (protein kinase C [1]; relative to phorbol 12,13-dibutyrate): an order of magnitude less
Ki (protein kinase C [1]; usual phorbol ester binding conditions, reconstitution in phosphatidylserine, neristatin 1: mean±sem, 3 experiments): 21.2 ± 1.3 nM
IC50 (P388 cell line; Mus musculus, read-out: ED50 (the source's name)): 10 µg/mL (≈ 12.6 µM)
potency compared to bryostatin 5 (P388 cell line; relative to bryostatin 5): reduced but still significant potency
stability of small samples in various solvents [2]: rapidly degraded in various solvents
Ki (protein kinase C [3]; phosphatidylserine/TRITION X-100 mixed micelles, competition for [26-3H] bryostatin 4, neristatin 1: mean±SEM, 4 experiments): 124 ± 10 nM
affinity for protein kinase C compared with bryostatin 4 (protein kinase C [3]; relative to bryostatin 4): at least two orders of magnitude less
